{"source": "patent US8183204B2", "about": "“Methods and compositions for increasing skin remodeling” (Summit Associates International Inc., priority 2000, dated 2012)", "system": "surgical incisions on the backs of Swiss-Webster mice", "test": "Scar formation after surgical incisions, synthetic peptide-metal complexes injected along the incision line", "assay_type": "in vivo", "conditions": "for Scar Formation score (5 days): 10 mice each, 1 mg/ml in 0.85% saline, 0.02 ml injected at four sites on each side of incision, immediately after surgery and 24 hours later, rated 0 to 4 (heavy scarring), untreated control 3.6; for post-surgical scar formation compared with control wounds (in words): mice, injection along incision line", "note": "Where no end group is shown, it is not given here."}
{"molecule": "Gly-His-Lys-Copper(II)", "values": [{"measurement": "Scar Formation score (5 days)", "value": "0.2 ± 0.1"}]}
{"molecule": "Gly-His-Lys-His-Tin(II) (GHKH; also: tin(II) complex)", "values": [{"measurement": "Scar Formation score (5 days)", "value": "0.4 ± 0.2"}]}
{"molecule": "N[C@@H](CS(=O)(=O)O)C(=O)O.[Cu+2]", "note": "[Cysteic acid-Copper(II), reference compound]", "values": [{"measurement": "post-surgical scar formation compared with control wounds (in words)", "value": "much less active"}]}
{"molecule": "Gly-His-Lys-His-Copper(II) (GHKH; also: copper(II) complex)", "values": [{"measurement": "Scar Formation score (5 days)", "value": "0.4 ± 0.2"}]}
{"molecule": "Ala-Gly-His-Copper(II)", "values": [{"measurement": "Scar Formation score (5 days)", "value": "0.3 ± 0.1"}]}
{"molecule": "Gly-Cys-Gly-Copper(II)", "values": [{"measurement": "Scar Formation score (5 days)", "value": "1.4 ± 0.3"}]}
{"molecule": "Cysteine sulfinic acid-Copper(II) [reference compound]", "values": [{"measurement": "Scar Formation score (5 days)", "value": "2.9 ± 0.5"}, {"measurement": "post-surgical scar formation compared with control wounds (in words)", "value": "much less active"}]}
{"molecule": "Gly-His-Lys-Tin(II)", "values": [{"measurement": "Scar Formation score (5 days)", "value": "0.4 ± 0.1"}]}
{"molecule": "His-Gly-Gly-Copper(II)", "values": [{"measurement": "Scar Formation score (5 days)", "value": "0.5 ± 0.2"}]}
{"molecule": "Ala-Gly-His-Tin(II)", "values": [{"measurement": "Scar Formation score (5 days)", "value": "0.3 ± 0.1"}]}
{"molecule": "Phe-Phe-Copper(II)", "values": [{"measurement": "Scar Formation score (5 days)", "value": "0.5 ± 0.3"}]}
{"molecule": "Gly-Gly-Gly-Copper(II)", "values": [{"measurement": "Scar Formation score (5 days)", "value": "0.5 ± 0.3"}]}
{"molecule": "N[C@@H](CCS(=O)(=O)O)C(=O)O.[Cu+2]", "note": "[Homocysteic acid-Copper(II), reference compound]", "values": [{"measurement": "post-surgical scar formation compared with control wounds (in words)", "value": "much less active"}]}
{"molecule": "Gly-Gly-His-Copper(II)", "values": [{"measurement": "Scar Formation score (5 days)", "value": "0.3 ± 0.2"}]}
{"molecule": "His-Gly-Gly-Tin(II)", "values": [{"measurement": "Scar Formation score (5 days)", "value": "0.4 ± 0.2"}]}
